Results reported in patent US20170027172A1, “USE OF SUBSTITUTE OXO TETRAHYDROQUINOLINE SULFONAMIDES OR SALTS THEREOF FOR RAISING STRESS TOLERANCE OF PLANTS” (BAYER CROPSCIENCE AKTIENGESELLSCHAFT, priority 2014, published 2017).

Legend:
[1] = test system: Brassica napus; experiment: Drought stress greenhouse test Part C, visual scoring vs stressed control plants; format: in vivo; design: key: 0: no effect; 10: slight positive effect; 20: clear positive effect; 30: strong positive effect; details: spray application 250 g/ha, efficacy range of 3-4 pots
Experimental: Seeds of monocotyledonous and dicotyledonous crop plants were sown in sandy loam in plastic or wood-fiber pots, covered with soil or sand and cultivated in a greenhouse under good growth conditions. The trial plants were treated at the early leaf stage (BBCH10-BBCH13). To assure uniform water supply before commencement of stress, the potted plants were supplied with water by dam irrigation prior to substance application. The inventive compounds were first formulated as wettable powders (WP) or dissolved in a solvent mixture. The further dilution was effected with water supplemented with 0.2% wetting agent (e.g. agrotin). The finished spray liquor was sprayed onto the green parts of the plant at an equivalent water application rate of 600 l/ha. Substance application was followed immediately by stress treatment of the plants. For this purpose, the wood-fiber pots were transferred in plastic inserts in order to prevent them from subsequently drying out too quickly. Drought stress was induced by gradual drying out under the following conditions: “Day”: 14 hours with illumination at 26-30° C. […] Once this juncture had been reached, the appearance of the plants treated with test substances was recorded in comparison to the stressed control plants by the following categories: [table] For each substance and dosage, 3-4 pots were treated and evaluated. […]

[2] = target: T1, phosphatase ABI1 via the co-regulator RCAR11/PYR1 (Arabidopsis thaliana, UniProt O49686+P49597); experiment: In vitro inhibition of the phosphatase ABI1 via the co-regulator RCAR11/PYR1, MUP dephosphorylation; format: biochemical; design: dose or concentration left out as unconfirmed; details: in a solution of DMSO and water; fluorescence at 460 nm
T1 sequence (O49686 1-191): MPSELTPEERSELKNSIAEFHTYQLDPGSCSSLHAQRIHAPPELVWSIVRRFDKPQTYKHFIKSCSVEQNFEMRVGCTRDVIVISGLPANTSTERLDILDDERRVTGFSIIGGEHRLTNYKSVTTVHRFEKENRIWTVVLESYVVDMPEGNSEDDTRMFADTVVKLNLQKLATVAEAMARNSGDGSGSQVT
T1 sequence (P49597 1-434): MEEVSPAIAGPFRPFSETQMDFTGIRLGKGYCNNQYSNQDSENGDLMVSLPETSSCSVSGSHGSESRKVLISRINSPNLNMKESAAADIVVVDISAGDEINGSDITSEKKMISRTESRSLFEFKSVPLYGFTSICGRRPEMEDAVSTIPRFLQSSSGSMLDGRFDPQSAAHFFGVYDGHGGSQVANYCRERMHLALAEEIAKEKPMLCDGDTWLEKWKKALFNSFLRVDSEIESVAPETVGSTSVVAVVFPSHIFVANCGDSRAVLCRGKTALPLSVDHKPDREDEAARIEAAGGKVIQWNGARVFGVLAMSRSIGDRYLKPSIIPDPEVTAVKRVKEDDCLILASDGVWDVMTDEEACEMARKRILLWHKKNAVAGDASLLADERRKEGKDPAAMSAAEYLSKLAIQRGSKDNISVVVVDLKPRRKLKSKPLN
In short: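 Arabidopsis ABI1 (0.15 μg/well) with RCAR11/PYR1 (0.30 μg/well) in Tris-HCl pH 8, NaCl, MnCl2, DTT, Tween20; MUP substrate, 20 min at 35 °C, fluorescence ex 340/em 460 nm. Compounds tested at 5 mM in DMSO/water, optionally pre-treated with porcine liver esterase; inhibition banded ≥90/70/50/30%.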

[3] = test system: Triticum aestivum; experiment: Drought stress greenhouse test Part A, visual scoring vs stressed control plants; format: in vivo; design: key: 0: no effect; 10: slight positive effect; 20: clear positive effect; 30: strong positive effect; details: average score of 3 pots
Experimental: (§1) Seeds of monocotyledonous and dicotyledonous crop plants were sown in sandy loam in plastic pots, covered with soil or sand and cultivated in a greenhouse under good growth conditions. The trial plants were treated at the early leaf stage (BBCH10-BBCH13). To assure uniform water supply before commencement of stress, the potted plants were supplied with water by dam irrigation prior to substance application.
(§2) The inventive compounds formulated in the form of wettable powders (WP) were sprayed onto the green parts of the plants as an aqueous suspension at an equivalent water application rate of 600 l/ha with addition of 0.2% wetting agent (e.g. agrotin). Substance application was followed immediately by stress treatment of the plants.
(§3) Drought stress was induced by gradual drying out under the following conditions:
(§4) “Day”: 14 hours with illumination at ˜26-30° C. “Night”: 10 hours without illumination at ˜18-20° C.
(§5) The duration of the respective stress phases was guided mainly by the condition of the stressed control plants. It was ended (by re-irrigating and transfer to a greenhouse with good growth conditions) as soon as irreversible damage was observed on the stressed control plants.
(§6) The end of the stress phase was followed by an about 4-7-day recovery phase, during which the plants were once again kept under good growth conditions in a greenhouse. The duration of the recovery phase was guided mainly by when the trial plants had attained a state which enabled visual scoring of potential effects, and was therefore variable.
(§7) Once this juncture had been reached, the appearance of the plants treated with test substances was recorded in comparison to the stressed control plants by the following categories:
(§8) In order to rule out any influence on the effects observed by any fungicidal or insecticidal action of the test compounds, it was additionally ensured that the tests proceeded without fungal infection or insect infestation.
(§9) In each test, for each crop and dosage, plants in 3 pots were treated and evaluated separately. The values reported in Tables A-1 to A-2 below for the effects obtained are averages from the scores obtained.
(§10) BRSNS=Brassica napus TRZAS=Triticum aestivum

[4] = test system: Brassica napus; experiment: as above; format: in vivo; design: key: 0: no effect; 10: slight positive effect; 20: clear positive effect; 30: strong positive effect; details: spray application 250 g/ha, average score of 3 pots
Experimental: as §1, §2, §3, §4, §5, §6, §7, §8, §9, §10

[5] = test system: Triticum aestivum; experiment: Drought stress greenhouse test Part B, visual scoring vs stressed control plants; format: in vivo; details: efficacy range of 2-3 pots
Experimental: as §1, §2, §3
(§11) “Day”: 14 hours with illumination at 26-30° C. “Night”: 10 hours without illumination at 18-20° C.
as §5
The end of the stress phase was followed by an about 4-7-day recovery phase, during which the plants were once again kept under good growth conditions in a greenhouse. The duration of the recovery phase was guided mainly by when the trial plants had attained a state which enabled visual scoring of potential effects, and is therefore variable.
as §7
For each substance and dosage, 2-3 pots were treated and evaluated.
as §10

[6] = test system: Brassica napus; experiment: as above; format: in vivo; design: key: 0: no effect; 10: slight positive effect; 20: clear positive effect; 30: strong positive effect; details: efficacy range of 2-3 pots
Experimental: as §1, §2, §3, §11
The duration of the respective stress phases was guided mainly by the condition of the stressed control plants. […]
as §7
For each substance and dosage, 2-3 pots were treated and evaluated. […]

Row | SMILES | ABI1 inhibition [2] | Effect (TRZAS) ([3]; spray application 25 g/ha) | other results
1 | COCN1C(=O)CCc2cc(NS(=O)(=O)Cc3ccc(C(F)(F)F)cc3)ccc21 [A49-178] | ++++ (inhibition≧90%) |  | Effect (BRSNS) [1]: 20
2 | Cc1ccc(CS(=O)(=O)Nc2ccc3c(c2)CCC(=O)N3CC2CC2)cc1 [A19-152] | ++++ (inhibition≧90%) | 20 | 
3 | O=C1CCc2cc(NS(=O)(=O)Cc3ccc(F)cc3)ccc2N1CC1CC1 [A19-158] | ++++ (inhibition≧90%) | 20-30 | Effect (BRSNS) [4]: 20; Effect (TRZAS) ([3]; spray application 250 g/ha): 20-30
4 | O=C1CCc2cc(NS(=O)(=O)Cc3ccc(F)cc3)ccc2N1CC(F)F [A1-158] | +++ (90%>inhibition≧70%) |  | Effect (TRZAS) ([5]; spray application 250 g/ha): 10-20
5 | O=C1CCc2cc(NS(=O)(=O)Cc3cc(F)cc(F)c3)ccc2N1CC1CC1 [A19-164] | +++ (90%>inhibition≧70%) |  | Effect (BRSNS) ([6]; spray application 2.5 g/ha): 20
6 | O=C1CCc2cc(NS(=O)(=O)Cc3ccc(C(F)(F)F)cc3)ccc2N1CC1CC1 [A19-178] | ++++ (inhibition≧90%) |  | Effect (BRSNS) [4]: 20
7 | Cc1ccc(CS(=O)(=O)Nc2ccc3c(c2)CCC(=O)N3CC2CC2)cc1F [A19-357, N-[1-(Cyclopropylmethyl)-2-oxo-1,2,3,4-tetrahydroquinolin-6-yl]-1-(3-fluoro-4-methylphenyl)methanesulfonamide] | ++++ (inhibition≧90%) |  | Effect (TRZAS) ([5]; spray application 250 g/ha): 10-20
8 | N#Cc1ccc(CS(=O)(=O)Nc2ccc3c(c2)CCC(=O)N3CC2CC2)cc1 [A19-181] | ++++ (inhibition≧90%) |  | Effect (TRZAS) ([5]; spray application 250 g/ha): 10-20
9 | CC1(C)CC(=O)N(CC(F)(F)F)c2ccc(NS(=O)(=O)c3ccc(C#N)cc3)cc21 [B2-45] |  | 20 | 
10 | N#CCN1C(=O)CCc2cc(NS(=O)(=O)Cc3ccc(Br)cc3)ccc21 [A16-172] |  |  | Effect (BRSNS) ([6]; spray application 25 g/ha): 20; Effect (TRZAS) ([5]; spray application 25 g/ha): 10-20
11 | N#Cc1cccc(CS(=O)(=O)Nc2ccc3c(c2)CCC(=O)N3CC2CC2)c1 [A19-182] | ++ (70%>inhibition≧50%) | 20 | Effect (TRZAS) ([3]; spray application 250 g/ha): 20-30
12 | CC1(C)CC(=O)N(CC(F)(F)F)c2ccc(NS(=O)(=O)CCc3ccc(Cl)cc3)cc21 [B2-291] |  | 20 | Effect (TRZAS) ([3]; spray application 250 g/ha): 30
13 | CC1(C)CC(=O)N(CC(F)(F)F)c2ccc(NS(=O)(=O)Cc3ccc(Cl)cc3)cc21 [B2-165] |  | 20 | 
